From patent US20240196933A1, “USE OF GOSSYPOL AND A METHANE INHIBITOR FOR REDUCING THE FORMATION OF METHANE EMANATING FROM THE DIGESTIVE ACTIVITIES OF RUMINANTS” (DSM IP ASSETS B.V., priority 2021, published 2024)

Test system: rumen liquor
Assay: In vitro test for methane production (modified Hohenheim Forage value Test, HFT)
Format: cell-based
Details: TMR feed, 8 h at 39° C.
Experimental: In vitro test for methane production: A modified version of the “Hohenheim Forage value Test (HFT)” was used for testing the effect of specific compounds on the rumen functions mimicked by this in-vitro system.
Principle: Feed is gadded into a syringe with a composition of rumen liquor and an appropriate mixture of buffers. The solution is incubated at 39° C. After 8 hours the quantity (and composition) of gas phase produced is measured and put into a formula for conversion.
Sample weighing: The feed stuff (i.e. TMR (44% concentrate, 6% hay, 37% maize silage and 13% grass silage) is sieved to 1 mm and weighed exactly into 64 syringes. 4 of these syringes are the substrate controls, which display the gas production without the effect of the tested compounds. 4 other syringes are positive control (3-NOP, 10 μM). When needed, 4 syringes contain a carrier control (if the test compounds need a carrier). The remaining syringes contain the test substances, by groups of 4 syringes, in the amounts as indicated in table 1.
• The components are mixed in a Woulff bottle in following order: • 711 ml water • 0.18 ml trace element solution • 355.5 ml buffer solution • 355.5 ml mass element solution • The completed solution is warmed up to 39° C. followed by the addition of 1.83 ml sodium salt solution and the addition of reduction solution at 36° C. The rumen liquor is added, when the indicator turns colourless.
Extraction of the rumen liquor: 750 ml of rumen liquor are added to approximately 1,400 ml of medium solution under continued agitation and CO2-gassing.
Filling the syringes, incubation and determining gas volumes and VFA values: The diluted rumen fluid (24 ml) is added to the glass syringe. The syringes are then incubated for 8 hours at 39° C. under gentle agitation. After 8 hours, the volume of gas produced is measured, and the percentage of methane in the gas phase is determined by gas chromatography.
The food fermented was artificial TMR (44% concentrate, 6% hay, 37% maize silage and 13% grass silage). Gossypol was obtained from Sigma-Aldrich (G8761), and used at a concentration as outlined in table 1. 3-Nitrooxy-propanol (3-NOP) was used at the concentration as outlined in table 1.

O=[N+]([O-])OCCCO [3-NOP, 3-Nitrooxy-propanol, reference compound]
Total methane change [% vs. control] found (3-NOP 2.5 μM alone): −12 % vs. control | Total methane change [% vs. control] found (3-NOP 5 μM alone): −54 % vs. control | Total methane change [% vs. control] found (3-NOP 10 μM alone): −98 % vs. control

Cc1cc2c(C(C)C)c(O)c(O)c(C=O)c2c(O)c1-c1c(C)cc2c(C(C)C)c(O)c(O)c(C=O)c2c1O [G, Gossypol]
Total methane change [% vs. control] found (G 5 μM alone): −1 % vs. control | Total methane change [% vs. control] found (G 10 μM alone): −11 % vs. control | Total methane change [% vs. control] found (G 20 μM alone): −15 % vs. control | Total methane change [% vs. control] found (G 100 μM alone): −69 % vs. control
